Common to all, as to assay type: functional
Assay [1] deals with PBMC. Put plainly: Inhibition of LPS-stimulated TNFalpha secretion in human PBMC cells at 10 uM after 24 hrs by ELISA. In general terms: In an ELISA, binding on a coated surface is turned into a signal by an enzyme label.
Assay [2] deals with PBMC. Put plainly: Inhibition of LPS-stimulated TNFalpha secretion in human PBMC cells at 50 uM after 24 hrs by ELISA.
The subject of assay [3] is THP-1. Nature of the assay: Inhibition of LPS-stimulated TNFalpha secretion in human THP1 cells at 10 uM after 24 hrs by ELISA. The settings on record: THP-1, 24 h.
In assay [4] the test system is THP-1. Nature of the assay: Inhibition of LPS-stimulated TNFalpha secretion in human THP1 cells at 50 uM after 24 hrs by ELISA. To be noted: THP-1, 24 h.

The structures appear in SMILES notation.

As to `Nc1c(-c2ccccc2)c2ccccc2[nH]c1=O`, the inhibition (in general, the drop in the measured response relative to a control, in per cent) at 10 µM in the assay on PBMC [1] was determined as 29%. For the same compound, the inhibition at 50 µM with PBMC [2] was 79%.
In the case of `COCCN(CCOC)c1c(-c2ccccc2)c2ccccc2[nH]c1=O`, in the assay with THP-1 [3], the inhibition at 10 µM was 0%. This compound registered an inhibition at 50 µM in the assay on THP-1 [4] of 59%.
For `CN(C)C(=O)N1CCN(c2c(-c3ccccc3)c3ccccc3[nH]c2=O)CC1`, in the assay on THP-1 [3], 10 µM produced 21% inhibition. In the assay with THP-1 [4], testing at 50 µM gave an inhibition of 43%.
Regarding `COc1c(-c2ccccc2)c2ccccc2[nH]c1=O`, the inhibition at 10 µM in the assay with THP-1 [3] is 7%; in the assay on PBMC [1], 24%. In addition, the inhibition at 50 µM in the assay with THP-1 [4] came out at 10%; in the assay on PBMC [2] it was 67%.
For the compound `CCc1c(-c2ccccc2)c2ccccc2[nH]c1=O`, the inhibition at 10 µM in the assay with THP-1 [3] came out at 3%; with PBMC [1], 32%. For the same compound, the inhibition at 50 µM in the assay with THP-1 [4] was found to be 80%; with PBMC [2], 50%.
`CN(C)c1c(-c2ccccc2)c2ccccc2[nH]c1=O` came in with an inhibition at 10 µM in the assay with THP-1 [3] of 0%. In the assay with THP-1 [4], this compound yielded an inhibition at 50 µM of 83%.
For `CNc1c(-c2ccccc2)c2ccccc2[nH]c1=O`, the inhibition at 10 µM in the assay on THP-1 [3] is 50%; in the assay with PBMC [1], 36%. For the same compound, the figures for the inhibition at 50 µM in the assay on THP-1 [4] and in the assay with PBMC [2] were 97% and 67%, respectively.
As for `CN(CCO)c1c(-c2ccccc2)c2ccccc2[nH]c1=O`, in the assay with THP-1 [3], the inhibition at 10 µM is 0%. In addition, in the assay with THP-1 [4], the inhibition at 50 µM turned out to be 21%.
For the compound `CSc1c(-c2ccccc2)c2ccccc2[nH]c1=O`, the figures for the inhibition at 10 µM in the assay on THP-1 [3] and in the assay with PBMC [1] were 49% and 78%, respectively. The inhibition at 50 µM with THP-1 [4] amounted to 93%; in the assay on PBMC [2], 95%.
With `CSc1c(-c2ccccc2)c2cc([N+](=O)[O-])ccc2[nH]c1=O`, 10 µM produced 86% inhibition with PBMC [1]. The same compound had an inhibition at 50 µM in the assay on PBMC [2] of 94%.

The record behind these values is ChEMBL document CHEMBL1137459, “Synthesis of 3-O-methylviridicatin analogues with improved anti-TNF-alpha properties” (2007).
